Here are results for one compound from ChEMBL document CHEMBL1649272, “Unbound cephalothin pharmacokinetics in adult burn patients are related to the elapsed time after injury” (Antimicrob Agents Chemother, 2009).

SMILES strings stand for the structures.

Data set [1] in a line: Mean residence time in healthy human at 1 g, iv. The data set is classed as ADME, organism-based. As to conditions: in vivo.
Data set [2] is described as follows: Half life in healthy human at 1 g, iv. Format: ADME, organism-based. As to conditions: in vivo.
A short description of data set [3]: Volume of distribution at steady state in healthy human at 1 g, iv. The data set is classed as ADME, organism-based. As to conditions: in vivo, read-out: Vdss.
Data set [4] deals with Homo sapiens. Description: Clearance in healthy human at 1 g, iv. As to conditions: in vivo.
Data set [5] in a line: Mean residence time in patient with severe burns at 1 g, iv. Format: ADME, organism-based. As to conditions: human, in vivo.
The nature of data set [6]: Terminal half life in patient with severe burns at 1 g, iv. The data set is classed as ADME, organism-based. As to conditions: human, in vivo, read-out: beta t1/2 (converted).
Data set [7] can be described thus: Cmax in healthy human at 1 g, iv. Format: ADME, organism-based. Also on record: dose 1 g, route intravenous. As to conditions: in vivo.
A short description of data set [8]: Half life in patient with severe burns at 1 g, iv. The data set is classed as ADME, organism-based. As to conditions: human, in vivo.
In data set [9] the test system is Homo sapiens. Description: AUC (0 to infinity) in healthy human at 1 g, iv. The data set is classed as ADME, organism-based, Plasma. Also on record: dose 1 g, time infinity, route intravenous. As to conditions: in vivo.
A short description of data set [10]: Renal clearance in patient with severe burns at 1 g, iv. As to conditions: human, in vivo, read-out: CL_renal. Format: ADME, organism-based, Kidney.
Data set [11] can be described thus: Volume of distribution at steady state in patient with severe burns at 1 g, iv. Format: ADME, organism-based. As to conditions: human, in vivo, read-out: Vdss.
Data set [12] is described as follows: Renal clearance in healthy human at 1 g, iv. The data set is classed as ADME, organism-based, Kidney. As to conditions: in vivo, read-out: CL_renal.
Data set [13] has as its system Homo sapiens. The data set can be described thus: Clearance in patient with severe burns at 1 g, iv. As to conditions: in vivo.
Data set [14] is described as follows: Plasma protein binding in patient with severe burns at 1 g, iv. As to conditions: human, read-out: PPB (converted). Format: ADME, cell-free.
Data set [15] can be described thus: Terminal half life in healthy human at 1 g, iv. The data set is classed as ADME, organism-based. As to conditions: in vivo, read-out: beta t1/2 (converted).
The test system of data set [16] is Homo sapiens. Description: AUC (0 to infinity) in patient with severe burns at 1 g, iv. Format: ADME, organism-based, Plasma. Also on record: dose 1 g, time infinity, route intravenous. As to conditions: in vivo.
Data set [17] can be described thus: Plasma protein binding in healthy human at 1 g, iv. The data set is classed as ADME, cell-free. As to conditions: read-out: PPB (converted).
A short description of data set [18]: Cmax in patient with severe burns at 1 g, iv. The data set is classed as ADME, organism-based. More on the design: dose 1 g, route intravenous. As to conditions: human, in vivo.

With `CC(=O)OCC1=C(C(=O)O)N2C(=O)[C@@H](NC(=O)Cc3cccs3)[C@H]2SC1` [CEPHALOTHIN], the mean residence time MRT was 22.8 min in data set [1] and 35.4 min in data set [5]. The half-life was 15.6 min in data set [2], 54.6 min in [6], 24.6 min in data set [8] and 44.4 min in data set [15]. The Vd in [3] was 0.6 L/kg; in data set [11] it was 0.63 L/kg. Also, the results for the CL in [4] and in data set [13] were 26.3 mL/min/kg and 19.8 mL/min/kg, respectively. Also, the Cmax in [7] was 21300 ng/mL; in data set [18] it was 38700 ng/mL. The figures for the AUC in data set [9] and in data set [16] were 9890 ng·h/mL and 12000 ng·h/mL, respectively. The CL renal in data set [10] worked out at 148 mL/min; in data set [12], 98 mL/min. The fraction unbound in data set [14] is 0.41; in data set [17], 0.29.

The MRT is the average time that molecules of a dose stay in the body. For orientation: Cmax means the highest concentration seen after dosing. What is called AUC is the area under the concentration-time curve, a measure of exposure. Read a high AUC as more exposure.
